Test results reported in patent EP0463456A1, “Phosphorus-containing HMG-CoA reductase inhibitors, new intermediates and their use” (E.R. SQUIBB & SONS, INC., priority 1990, dated 1992).
pIC50: −log10 of the molar value.

Molecular target: T1, Human skin fibroblasts (Homo sapiens, UniProt P04035)
T1 sequence (P04035 1-888): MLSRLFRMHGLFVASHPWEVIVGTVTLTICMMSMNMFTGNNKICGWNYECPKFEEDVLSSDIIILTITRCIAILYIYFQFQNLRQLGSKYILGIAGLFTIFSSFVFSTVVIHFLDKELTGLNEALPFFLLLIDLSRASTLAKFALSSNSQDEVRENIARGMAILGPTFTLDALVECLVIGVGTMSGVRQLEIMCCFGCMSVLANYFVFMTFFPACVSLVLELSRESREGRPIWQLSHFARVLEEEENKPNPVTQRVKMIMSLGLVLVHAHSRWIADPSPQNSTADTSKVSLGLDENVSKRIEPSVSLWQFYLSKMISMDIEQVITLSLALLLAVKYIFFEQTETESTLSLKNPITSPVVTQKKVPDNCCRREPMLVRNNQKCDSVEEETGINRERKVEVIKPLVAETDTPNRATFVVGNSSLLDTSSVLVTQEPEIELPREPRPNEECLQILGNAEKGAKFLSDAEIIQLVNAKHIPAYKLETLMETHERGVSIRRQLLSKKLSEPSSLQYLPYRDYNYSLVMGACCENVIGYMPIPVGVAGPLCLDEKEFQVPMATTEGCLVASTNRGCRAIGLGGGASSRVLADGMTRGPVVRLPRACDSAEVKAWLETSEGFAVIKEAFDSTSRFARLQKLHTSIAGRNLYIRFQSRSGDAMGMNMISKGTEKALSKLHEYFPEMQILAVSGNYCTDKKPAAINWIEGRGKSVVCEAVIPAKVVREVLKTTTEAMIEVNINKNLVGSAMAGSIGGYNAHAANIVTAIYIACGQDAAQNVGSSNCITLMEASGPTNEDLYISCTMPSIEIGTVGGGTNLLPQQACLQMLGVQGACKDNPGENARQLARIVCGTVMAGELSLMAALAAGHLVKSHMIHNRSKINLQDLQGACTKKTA
Test: Cholesterol Synthesis in Human Skin Fibroblasts (14C-acetate incorporation into cholesterol)
Type: cell-based
Conditions: inhibition of 14C-acetate incorporation into cholesterol; 30 minutes preincubation, 4 hours with acetate; read-out: Fibroblasts 150
Description: 3) Cholesterol Synthesis in Human Skin Fibroblasts
Compound selectivity favoring greater inhibitory activity in hepatic tissue would be an attribute for a cholesterol synthesis inhibitor. Therefore, in addition to evaluating cholesterol synthesis inhibitors in hepatocytes, these compounds are also tested for their activity as inhibitors of cholesterol synthesis in cultured fibroblasts. […]
a. Human Skin Fibroblast Cultures
Human skin fibroblasts (passage 7-27) are grown in Eagles' minimal essential medium (EM) containing 10% fetal calf serum. For each experiment, stock cultures are trypsonized to disperse the cell monolayer, counted, and plated in 35 mm tissue culture wells (5x10^S cells/2.0 ml). […]
Induced fibroblast cultures are washed with EMEM100 (Earle's minimal essential medium). […] The organic phase is dried under nitrogen, and the residue resuspended in chloroform:methanol (2:1) (100 µl), and the total sample spotted on silica gel (LK6D) thin-layer plates, V, VO and analyzed as described for hepatocytes.
Inhibition of cholesterol synthesis is determined by comparing the percent of label in the cholesterol peak from control and drug-treated cultures. Results are expressed as 150 values, and are derived from composite dose response curves from two or more experiments. A 95% confidence interval for the 150 value is also calculated from the composite dose response curves.

pIC50: 5.60
Substance: (S)-4-[[[4-(4-Fluorophenyl)-1,2-bis(1-methylethyl)-5-phenyl-1H-pyrrol-3-yl]-ethynyl]hydroxyphosphinyl]-3-hydroxybutanoic acid, dilithium salt [SQ 34,346]
